≈ marks a conversion by molar mass, not a printed value. Read-outs that look alike come from different tables or passages of the source.
Experiments:
[1] = tested on: Staphylococcus aureus (ATCC25923); experiment: MIC, broth microdilution (CLSI), Staphylococcus aureus ATCC25923; settings: ATCC25923, read-out: S. aureus ("Clinical") MIC
Procedure: Initial minimal inhibitory concentration (MIC) tests were made on two bacterial strains: • Escherichia coli (ATCC25922) • Staphylococcus aureus (ATCC25923).
Minimal Inhibitory Concentration (MIC)
MIC values were determined using the standard broth microdilution procedure based on the guidelines by the Clinical and Laboratory Standards Institute (CLSI). Briefly, the compounds were dissolved in DMSO to 10 mM. They were diluted in cation-adjusted Mueller-Hinton broth (CAMHB) to four times the highest concentration tested. A serial 2-fold dilution in CAMHB was done in microdilution plates. The inoculum of bacterial strain to be tested was prepared by making a suspension of colonies from an 18 to 24 hours old plate in CAMHB. The inoculum was diluted so that, after inoculation, each well contained approximately 5×10^5 CFU/mL. To a volume of 50 μl compound in CAMHB an equal volume of inoculum was added. The tray was sealed in a plastic bag and incubated at 35° C. for 16 to 20 hours. To aid in the detection of growth the dye resazurin was added to a final concentration 0.001% and incubated at room temperature for 1 h. Reduction of resazurin, and therefore bacterial growth, was seen as a change from blue to pink.

S. aureus ATCC 29213 = experiment: MIC, S. aureus ATCC 29213 + 50% HS; assay type: cell-based; settings: Staphylococcus aureus, ATCC29213
E. coli JW5503 = experiment: MIC, E. coli JW5503; assay type: cell-based; settings: Escherichia coli, JW5503, read-out: MIC E. coli JW5503
K. pneumoniae ATCC 43816 = experiment: MIC, K. pneumoniae ATCC 43816; assay type: cell-based; settings: Klebsiella pneumoniae, ATCC43816
[2] = tested on: E. coli RNase P RNA, M1 RNA; experiment: Inhibition of bacterial RNase P activity, IC50 determination (cleavage of pATSerUG by M1 RNA); assay type: biochemical; settings: NI = No inhibition
H. influenzae ATCC 49247 = experiment: MIC, H. influenzae ATCC 49247; assay type: cell-based; settings: Haemophilus influenzae, ATCC49247
[3] = tested on: Pseudomonas aeruginosa (ATCC27853); experiment: microbe, parasite or virus in culture; assay type: cell-based; settings: read-out: MIC P. aeruginosa ATCC 27853
[4] = tested on: Enterococcus faecalis (ATCC29212); experiment: MIC, broth microdilution (CLSI), Enterococcus faecalis ATCC29212; assay type: cell-based; settings: read-out: MIC E. faecalis ATCC 29212
A. baumannii ATCC 17978 = experiment: MIC, A. baumannii ATCC 17978; assay type: cell-based; settings: Acinetobacter baumannii, ATCC17978
E. faecium ATCC 700221 = experiment: MIC, E. faecium ATCC 700221; assay type: cell-based; settings: Enterococcus faecium, ATCC700221; read-out: MIC E. faecium ATCC 700221
[5] = tested on: Staphylococcus aureus subsp. aureus (ATCC29213); experiment: MIC, broth microdilution (CLSI), Staphylococcus aureus subsp. aureus ATCC29213; assay type: cell-based
[6] = tested on: P. aeruginosa NTUH-974 (MDR); experiment: MIC, P. aeruginosa NTUH-974 (MDR); assay type: cell-based
[7] = tested on: Escherichia coli (ATCC25922); experiment: MIC, broth microdilution (CLSI), Escherichia coli ATCC25922
[8] = tested on: S. aureus MRSA ATCC 33591; experiment: MIC, S. aureus MRSA ATCC 33591; assay type: cell-based; settings: Staphylococcus aureus; read-out: MIC S. aureus MRSA ATCC 33591
S. pneumoniae ATCC 49619 = experiment: MIC, S. pneumoniae ATCC 49619; assay type: cell-based; settings: Streptococcus pneumoniae, ATCC49619
N. gonorrhoeae 612501 = experiment: MIC, N. gonorrhoeae 612501; assay type: cell-based; settings: Neisseria gonorrhoeae
[9] = ATCC29213, Table 15, read-out: S. aureus ("wound") (MIC)
[10] = ATCC29213, Table 16, read-out: MIC S. aureus ATCC 29213
[11] = Pseudomonas aeruginosa, read-out: MIC P. aeruginosa NTUH-974 (MDR)
[12] = ATCC25922, read-out: E. coli MIC, Table 15, NI = No inhibition
[13] = ATCC25922, read-out: MIC E. coli ATCC 25922, Table 16
[14] = Pseudomonas aeruginosa; read-out: MIC P. aeruginosa NTUH-974 (MDR)

Structure (SMILES)	MIC [1]	MIC (S. aureus ATCC 29213)	MIC (E. coli JW5503)	MIC (K. pneumoniae ATCC 43816)	IC50 [2]	MIC (H. influenzae ATCC 49247)	MIC [3]	MIC [4]	MIC (A. baumannii ATCC 17978)	MIC (E. faecium ATCC 700221)	MIC [5, 9]	MIC [5, 10]	MIC [6, 11]	MIC [7, 12]	MIC [7, 13]	MIC [8]	MIC (S. pneumoniae ATCC 49619)	MIC (N. gonorrhoeae 612501)	MIC ([7]; ATCC25922, read-out: MIC E. coli ATCC 25922)	MIC [6, 14]
CN(C)CCCN1c2ccccc2Sc2cc(-c3cc4ccccc4[nH]3)ccc21 [compound 111, 3-(3-(1H-Indol-2-yl)-10H-phenothiazin-10-yl)-N,N-dimethylpropan-1-amine]	3 µg/mL (≈ 7.51 µM)	128 µg/mL	4 µg/mL (≈ 10 µM)	> 128 µg/mL	~20 µM	16 µg/mL (≈ 40 µM)	> 128 µg/mL	4 µg/mL (≈ 10 µM)	64 µg/mL (≈ 160 µM)	2 µg/mL (≈ 5.01 µM)	3 µg/mL (≈ 7.51 µM)	2 µg/mL (≈ 5.01 µM)	> 128 µg/mL	> 100 µg/mL	64 µg/mL (≈ 160 µM)	4 µg/mL (≈ 10 µM)	8 µg/mL (≈ 20 µM)	2 µg/mL (≈ 5.01 µM)		
CN(C)CCCN1c2ccccc2Sc2cc(-c3cc4cc(C#N)ccc4[nH]3)ccc21 [compound 123, 2-(10-(3-(dimethylamino)propyl)-10H-phenothiazin-3-yl)-1H-indole-5-carbonitrile]	2 µg/mL (≈ 4.71 µM)	64 µg/mL	4 µg/mL (≈ 9.42 µM)	> 128 µg/mL	> 100 µM	16 µg/mL (≈ 37.7 µM)	> 128 µg/mL	2 µg/mL (≈ 4.71 µM)	64 µg/mL (≈ 151 µM)	2 µg/mL (≈ 4.71 µM)	2 µg/mL (≈ 4.71 µM)	2 µg/mL (≈ 4.71 µM)	> 128 µg/mL	> 100 µg/mL		8 µg/mL (≈ 18.8 µM)	8 µg/mL (≈ 18.8 µM)	1 µg/mL (≈ 2.36 µM)	> 128 µg/mL	
NC1CCCC(CNc2cc(C(F)(F)F)cc3c2Nc2ccccc2S3)C1 (stereo not drawn) [compound 133, N-((3-Aminocyclohexyl)methyl)-3-(trifluoromethyl)-10H-phenothiazin-1-amine]	3 µg/mL (≈ 7.62 µM)	128 µg/mL	8 µg/mL (≈ 20.3 µM)	32 µg/mL (≈ 81.3 µM)	19 µM	16 µg/mL (≈ 40.7 µM)	128 µg/mL (≈ 325 µM)	8 µg/mL (≈ 20.3 µM)	16 µg/mL (≈ 40.7 µM)	4 µg/mL (≈ 10.2 µM)	81 µg/mL (≈ 206 µM)	4 µg/mL (≈ 10.2 µM)	128 µg/mL (≈ 325 µM)	13 µg/mL (≈ 33 µM)	32 µg/mL (≈ 81.3 µM)	4 µg/mL (≈ 10.2 µM)	32 µg/mL (≈ 81.3 µM)	2 µg/mL (≈ 5.08 µM)		
NCCN1CCC(Nc2cc(C(F)(F)F)cc3c2Nc2ccccc2S3)CC1 [compound 140, N-(1-(2-Aminoethyl)piperidin-4-yl)-3-(trifluoromethyl)-10H-phenothiazin-1-amine]	3 µg/mL (≈ 7.34 µM)	128 µg/mL	8 µg/mL (≈ 19.6 µM)	8 µg/mL (≈ 19.6 µM)	8 µM	8 µg/mL (≈ 19.6 µM)	64 µg/mL (≈ 157 µM)	4 µg/mL (≈ 9.79 µM)	8 µg/mL (≈ 19.6 µM)	4 µg/mL (≈ 9.79 µM)	8 µg/mL (≈ 19.6 µM)	4 µg/mL (≈ 9.79 µM)		7 µg/mL (≈ 17.1 µM)	32 µg/mL (≈ 78.3 µM)	4 µg/mL (≈ 9.79 µM)	32 µg/mL (≈ 78.3 µM)	2 µg/mL (≈ 4.9 µM)		32 µg/mL (≈ 78.3 µM)
NCCCN1c2ccccc2Sc2cc(-c3cc4ccccc4[nH]3)ccc21 [compound 150, 3-(3-(1H-Indol-2-yl)-10H-phenothiazin-10-yl)propan-1-amine]	1 µg/mL (≈ 2.69 µM)	64 µg/mL	4 µg/mL (≈ 10.8 µM)	16 µg/mL (≈ 43.1 µM)	14 µM	8 µg/mL (≈ 21.5 µM)	> 128 µg/mL	2 µg/mL (≈ 5.38 µM)	16 µg/mL (≈ 43.1 µM)	2 µg/mL (≈ 5.38 µM)		2 µg/mL (≈ 5.38 µM)	> 128 µg/mL	12 µg/mL (≈ 32.3 µM)	16 µg/mL (≈ 43.1 µM)	2 µg/mL (≈ 5.38 µM)	8 µg/mL (≈ 21.5 µM)	2 µg/mL (≈ 5.38 µM)		
CNCCCN1c2ccccc2Sc2cc(-c3cc4ccccc4[nH]3)ccc21 [compound 186, 3-(3-(1H-indol-2-yl)-10H-phenothiazin-10-yl)-N-methylpropan-1-amine]	2 µg/mL (≈ 5.19 µM)	64 µg/mL	4 µg/mL (≈ 10.4 µM)	128 µg/mL (≈ 332 µM)	30 µM	16 µg/mL (≈ 41.5 µM)	> 128 µg/mL	4 µg/mL (≈ 10.4 µM)	16 µg/mL (≈ 41.5 µM)	4 µg/mL (≈ 10.4 µM)		4 µg/mL (≈ 10.4 µM)	> 128 µg/mL	99 µg/mL (≈ 257 µM)	16 µg/mL (≈ 41.5 µM)	8 µg/mL (≈ 20.8 µM)	32 µg/mL (≈ 83 µM)	4 µg/mL (≈ 10.4 µM)		
CC(C)NCCCN1c2ccccc2Sc2cc(-c3cc4ccccc4[nH]3)ccc21 [compound 197, 3-(3-(1H-indol-2-yl)-10H-phenothiazin-10-yl)-N-isopropylpropan-1-amine]	6 µg/mL (≈ 14.5 µM)	128 µg/mL	4 µg/mL (≈ 9.67 µM)	> 128 µg/mL	25 µM	16 µg/mL (≈ 38.7 µM)	> 128 µg/mL	2 µg/mL (≈ 4.84 µM)	64 µg/mL (≈ 155 µM)	2 µg/mL (≈ 4.84 µM)	4 µg/mL (≈ 9.67 µM)	2 µg/mL (≈ 4.84 µM)	> 128 µg/mL		64 µg/mL (≈ 155 µM)	16 µg/mL (≈ 38.7 µM)	4 µg/mL (≈ 9.67 µM)	1 µg/mL (≈ 2.42 µM)		
NCCCN1c2ccc(-c3cc4ccccc4[nH]3)cc2Sc2cc(C(F)(F)F)ccc21 [compound 245, 3-(3-(1H-indol-2-yl)-7-(trifluoromethyl)-10H-phenothiazin-10-yl)propan-1-amine]	2 µg/mL (≈ 4.55 µM)	128 µg/mL	8 µg/mL (≈ 18.2 µM)	32 µg/mL (≈ 72.8 µM)	1 µM	4 µg/mL (≈ 9.1 µM)	> 128 µg/mL	2 µg/mL (≈ 4.55 µM)	16 µg/mL (≈ 36.4 µM)	1 µg/mL (≈ 2.28 µM)	1 µg/mL (≈ 2.28 µM)	2 µg/mL (≈ 4.55 µM)		7 µg/mL (≈ 15.9 µM)	8 µg/mL (≈ 18.2 µM)	2 µg/mL (≈ 4.55 µM)	16 µg/mL (≈ 36.4 µM)	2 µg/mL (≈ 4.55 µM)		64 µg/mL (≈ 146 µM)

From patent publication US11130741B2 (Bioimics AB, priority 2016, dated 2021)
